Measured values reported in patent US8648110B2, “2-aryl-acetic acids, their derivatives and pharmaceutical compositions containing them” (Dompe Pha.R.Ma S.p.A., priority 2003, dated 2014).

Legend:
[1] = molecular target: T1, CXCR2 (Homo sapiens, UniProt P25025); test: GRO-α induced PMN chemotaxis (CXCR2); type: cell-based; conditions: compound c = 10^−8 M
T1 construct: endogenous in cells; host or cells: human polymorphonucleate leukocytes (PMNs) isolated from blood of healthy volunteers
T1 sequence (P25025 1-360): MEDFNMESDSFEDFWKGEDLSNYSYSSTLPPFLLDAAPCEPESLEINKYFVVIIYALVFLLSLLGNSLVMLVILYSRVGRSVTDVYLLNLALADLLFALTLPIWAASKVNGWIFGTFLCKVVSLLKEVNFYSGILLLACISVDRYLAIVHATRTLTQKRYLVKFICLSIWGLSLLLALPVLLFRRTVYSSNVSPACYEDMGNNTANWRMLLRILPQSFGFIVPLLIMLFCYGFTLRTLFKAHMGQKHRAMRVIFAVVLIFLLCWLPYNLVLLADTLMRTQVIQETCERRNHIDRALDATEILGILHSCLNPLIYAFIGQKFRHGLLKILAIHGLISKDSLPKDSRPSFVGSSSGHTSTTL
Method: The compounds of the invention of formula I were evaluated in vitro for their ability to inhibit chemotaxis of polymorphonucleate leukocytes (hereinafter referred to as PMNs) and monocytes induced by the fractions of IL-8 and GRO-α. For this purpose, in order to isolate the PMNs from heparinized human blood, taken from healthy adult volunteers, mononucleates were removed by means of sedimentation on dextran (according to the procedure disclosed by W. J. Ming et al., J. Immunol., 138, 1469, 1987) and red blood cells by a hypotonic solution. The cell viability was calculated by exclusion with Trypan blue, whilst the ratio of the circulating polymorphonucleates was estimated on the cytocentrifugate after staining with Diff Quick.
During the chemotaxis assay (according to W. Falket et al., J. Immunol. Methods, 33, 239, 1980) PVP-free filters with a porosity of 5 μm and microchambers suitable for replication were used.
The compounds of the invention of formula (I) and (Ia) were evaluated at a concentration ranging between 10^−6 and 10^−10 M; for this purpose they were added, at the same concentration, both to the lower pores and the upper pores of the microchamber. Evaluation of the ability of the compounds of the invention of formula I to inhibit IL-8-induced chemotaxis of human monocytes was carried out according to the method disclosed by Van Damme J. et al. (Eur. J. Immunol., 19, 2367, 1989).
The biological activity of compounds showing high potency either as inhibitors of IL-8 induced PMN chemotaxis (CXCR1) or as dual inhibitors of IL-8 and GRO-α induced PMN chemotaxis (CXCR1/CXCR2) is reported in Table 1.

[2] = molecular target: T2, CXCR1 (Homo sapiens, UniProt P25024); test: IL-8 induced PMN chemotaxis (CXCR1); type: cell-based; conditions: for inhibition at 0.01 µM: compound c = 10^−8 M, IL-8 induced human PMN chemotaxis; for IL-8 inhibitory activity: result in words, IL-8 induced chemotaxis
T2 construct: endogenous in cells; host or cells: human polymorphonucleate leukocytes (PMNs) isolated from blood of healthy volunteers
T2 sequence (P25024 1-350): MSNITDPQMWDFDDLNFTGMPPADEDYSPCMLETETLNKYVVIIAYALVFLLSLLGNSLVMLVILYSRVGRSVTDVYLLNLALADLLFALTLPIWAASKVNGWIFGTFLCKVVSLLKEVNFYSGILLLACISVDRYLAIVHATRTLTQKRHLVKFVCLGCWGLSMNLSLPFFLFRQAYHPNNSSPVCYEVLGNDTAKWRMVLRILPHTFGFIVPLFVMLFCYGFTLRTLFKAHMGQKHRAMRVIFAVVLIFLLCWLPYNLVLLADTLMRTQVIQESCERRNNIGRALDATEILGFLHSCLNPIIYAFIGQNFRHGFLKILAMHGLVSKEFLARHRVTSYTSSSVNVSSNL

Compound | inhibition at 0.01 µM [1] | inhibition at 0.01 µM [2] | IL-8 inhibitory activity [2]
CC(C)C(=O)c1ccc(CC(=O)O)n1C [Example 12, (5-isobutyryl-1-methyl-1H-pyrrol-2-yl)acetic acid] | 65 ± 11% | 58 ± 11% | –
CC(=O)c1ccc(CC(N)=O)n1C [Example 19, (5-acetyl-1-methyl-1H-pyrrol-2-yl)acetamide] | 44 ± 9% | 54 ± 10% | –
CC(=O)c1ccc(CC(=O)NS(C)(=O)=O)n1C [Example 41, (5-acetyl-1-methyl-1H-pyrrol-2-yl)acetyl methanesulfonamide] | 46 ± 14% | 50 ± 10% | –
Cc1cc(CC(C)C)ccc1CC(=O)NS(C)(=O)=O [Example 42, (4-isobutyl-2-methylphenyl)acetyl methanesulfonamide] | 0% | 67 ± 14% | –
Cc1cc(NS(=O)(=O)C(F)(F)F)ccc1CC(=O)NS(C)(=O)=O [Example 43, {2-methyl-4-[(trifluoromethanesulfonyl)amino]phenyl}acetyl methanesulfonamide] | 52 ± 5% | 60 ± 7% | –
CC(C)Cc1ccc(CC(=O)O)cc1 [ibufenac, 2-[4-isobutylphenyl]acetic acid, reference compound] | – | – | do not exert any IL-8 inhibitory activity
O=C(O)Cc1cccc(C(=O)c2ccccc2)c1 [ketofenac, 2-[3-benzoylphenyl]acetic acid, reference compound] | – | – | do not exert any IL-8 inhibitory activity

Now from value to molecule, other results behind:

inhibition at 0.01 µM [1] | inhibition at 0.01 µM [2] | Compound | IL-8 inhibitory activity [2]
5 ± 10% | 62 ± 8% | Cc1c(CC(=O)O)cccc1C(C)C [Example 2, (3-isopropyl-2-methylphenyl)acetic acid] | –
27 ± 8% | 67 ± 14% | CCC(=O)c1cccc(CC(=O)O)c1Cl [Example 3, (2-chloro-3-propionylphenyl)acetic acid] | –
4 ± 8% | 60 ± 10% | Cc1cc(CC(C)C)ccc1CC(=O)O [Example 4, (4-isobutyl-2-methylphenyl)acetic acid] | –
65 ± 5% | 60 ± 7% | CC(=O)c1ccc(CC(=O)O)n1C [Example 11, (5-acetyl-1-methyl-1H-pyrrol-2-yl)acetic acid] | –
